# Measurements from BindingDB's records for doi:10.7270/Q2TX3D82 (Future University, 2017).
# pIC50: −log10 of the molar value.
# Target: T1, Dihydrofolate reductase (Bos taurus, UniProt P00376)
# T1 sequence (P00376 whole entry): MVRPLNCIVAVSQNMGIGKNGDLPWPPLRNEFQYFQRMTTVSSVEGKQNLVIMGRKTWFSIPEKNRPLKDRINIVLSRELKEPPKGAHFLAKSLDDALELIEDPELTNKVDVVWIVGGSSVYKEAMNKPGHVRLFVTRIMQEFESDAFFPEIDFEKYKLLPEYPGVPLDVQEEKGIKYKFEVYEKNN
# Test: Dihydrofolate Reductase (DHFR) Inhibition Assay
# Conditions: pH 7.4; 25 °C
row,Structure (SMILES),pIC50
1,"COc1ccc(-n2c(SCc3nnc(Nc4ccc(Cl)cc4)s3)nc3cc(OC)c(OC)cc3c2=O)cc1 [6,7-Dimethoxy-2-((5-(4-chlorophenylamino)-1,3,4-thiadiazol-2-yl)methylthio)-3-(4-methoxyphenyl)quinazolin-4(3H)-one (30)]",4.83
2,"COc1ccc(-n2c(SCC(=O)NNC(=S)c3ccc(Cl)cc3)nc3ccc(Cl)cc3c2=O)cc1 [1-[2-(6-Chloro)-3-(4-methoxy-phenyl)-4-oxo-3,4-dihydroquinazolin-2-yl-thio)acetyl)-4-(4-chloro)phenyl]thiosemicarbazide (20)]",5.92
3,"COc1ccc(-n2c(=S)[nH]c3cc(OC)c(OC)cc3c2=O)cc1 [(6,7-Dimethoxy)-2-mercapto-3-(4-methoxyphenyl)quinazolin-4(3H)-ones (11)]",4.54
4,COc1ccc(-n2c(=S)[nH]c3ccc(Cl)cc3c2=O)cc1 [6-Chloro-2-mercapto-3-(4-methoxyphenyl)quinazolin-4(3H)-ones (10)],4.94
5,"CCOC(=O)CSc1nc2cc(OC)c(OC)cc2c(=O)n1-c1ccc(OC)cc1 [Ethyl 2-(6,7-dimethoxy-3-(4-methoxyphenyl)-4-oxo-3,4-dihydroquinazolin-2-yl-thio)acetate (13)]",4.84
6,"COc1ccc(-n2c(SCc3nnc(S)n3-c3ccc(Cl)cc3)nc3cc(OC)c(OC)cc3c2=O)cc1 [(6,7-Dimethoxy)-2-((4-(4-chlorophenyl)-5-mercapto-4H-1,2,4-triazol-3-yl)methylthio)-3-(4-methoxyphenyl)quinazolin-4(3H)-one (26)]",4.96
7,"COc1ccc(-n2c(SCC(=O)N/N=C/c3ccc(Cl)cc3)nc3cc(OC)c(OC)cc3c2=O)cc1 [N'-[4-Chlorobenzylidene-2-(6,7-dimethoxy)-3-(4-methoxy-phenyl)-4-oxo-3,4-dihydroquinazolin-2-yl-thio]acetohydrazide (18)]",5.12
8,"COc1ccc(-n2c(SCC(=O)NN)nc3ccc(Cl)cc3c2=O)cc1 [2-[6-Chloro-3-(4-methoxyphenyl)-4-oxo-3,4-dihydroquinazolin-2-yl-thio] acetohydrazide (14)]",5.12

# Continued by rising pIC50, values first:
row,pIC50,Structure (SMILES)
1,4.72,"COc1ccc(-n2c(SCC(=O)N/N=C/c3ccc(Cl)cc3)nc3ccc(Cl)cc3c2=O)cc1 [N'-[4-Chlorobenzylidene-2-(6-chloro)-3-(4-methoxy-phenyl)-4-oxo-3,4-dihydroquinazolin-2-yl-thio]acetohydrazide (16)]"
2,4.93,"COc1ccc(Nc2nnc(CSc3nc4cc(OC)c(OC)cc4c(=O)n3-c3ccc(OC)cc3)s2)cc1 [6,7-Dimethoxy-2-((5-(4-methoxyphenylamino)-1,3,4-thiadiazol-2-yl)methylthio)-3-(4-methoxyphenyl)quinazolin-4(3H)-one (31)]"
3,4.97,"COc1ccc(-n2c(S)nnc2CSc2nc3cc(OC)c(OC)cc3c(=O)n2-c2ccc(OC)cc2)cc1 [(6,7-Dimethoxy)-2-((4-(4-methoxyphenyl)-5-mercapto-4H-1,2,4-triazol-3-yl)methylthio)-3-(4-methoxyphenyl)quinazolin-4(3H)-one (27)]"
4,5.10,"COc1ccc(/C=N/NC(=O)CSc2nc3cc(OC)c(OC)cc3c(=O)n2-c2ccc(OC)cc2)cc1 [N'-[4-Methoxybenzylidene-2-(6,7-dimethoxy)-3-(4-methoxy-phenyl)-4-oxo-3,4-dihydroquinazolin-2-yl-thio]acetohydrazide (19)]"
5,5.36,"COc1ccc(Nc2nnc(CSc3nc4ccc(Cl)cc4c(=O)n3-c3ccc(OC)cc3)s2)cc1 [6-chloro-2-((5-(4-methoxyphenylamino)-1,3,4-thiadiazol-2-yl)methylthio)-3-(4-methoxyphenyl)quinazolin-4(3H)-one (29)]"
6,5.77,"CCOC(=O)CSc1nc2ccc(Cl)cc2c(=O)n1-c1ccc(OC)cc1 [Ethyl 2-(6-chloro-3-(4-methoxyphenyl)-4-oxo-3,4-dihydroquinazolin-2-yl-thio)acetate (12)]"
7,6.10,"COc1ccc(-n2c(SCC(=O)NN)nc3cc(OC)c(OC)cc3c2=O)cc1 [2-[(6,7-Dimethoxy)-3-(4-methoxyphenyl)-4-oxo-3,4-dihydroquinazolin-2-yl-thio] acetohydrazide (15)]"
8,6.22,"COc1ccc(C(=S)NNC(=O)CSc2nc3cc(OC)c(OC)cc3c(=O)n2-c2ccc(OC)cc2)cc1 [1-[2-(6,7-Dimethoxy)-3-(4-methoxy-phenyl)-4-oxo-3,4-dihydroquinazolin-2-yl-thio)acetyl)-4-(4-methoxy)phenyl]thiosemicarbazide (23)]"
9,6.40,"COc1ccc(-n2c(SCc3nnc(Nc4ccc(Cl)cc4)s3)nc3ccc(Cl)cc3c2=O)cc1 [6-Chloro-2-((5-(4-chlorophenylamino)-1,3,4-thiadiazol-2-yl)methylthio)-3-(4-methoxyphenyl)quinazolin-4(3H)-one (28)]"
10,8.00,"COc1ccc(/C=N/NC(=O)CSc2nc3ccc(Cl)cc3c(=O)n2-c2ccc(OC)cc2)cc1 [N'-[4-Methoxybenzylidene-2-(6-chloro)-3-(4-methoxy-phenyl)-4-oxo-3,4-dihydroquinazolin-2-yl-thio]acetohydrazide (17)]"
